Test results from ChEMBL document CHEMBL5528083, “Discovery of a Novel Thienopyrimidine Compound as a Urate Transporter 1 and Glucose Transporter 9 Dual Inhibitor with Improved Efficacy and Favorable Druggability” (J Med Chem, 2024).

Columns and labels:
Mus musculus [1] = organism: Mus musculus; experiment: Reduction in serum uric acid level in acute hyperuricemia state Kunming mouse model assessed as SUA level; type: functional
Mus musculus [2] = organism: Mus musculus; experiment: Reduction in serum uric acid level in acute hyperuricemia state Kunming mouse model assessed as SUA level by measuring decrease ratio relative to control; type: functional; set-up: concentration or dose not given beside the values
[3] = biological target: T1, Solute carrier family 22 member 12 (Homo sapiens, UniProt Q96S37); experiment: Inhibition of human URAT1 expressed in HEK293T cells using 14C- uric acid assessed as uric acid absorption by measuring intracellular liquid radiation value by liquid scintillation counting analysis; type: cell-based
T1 sequence (Q96S37 whole entry): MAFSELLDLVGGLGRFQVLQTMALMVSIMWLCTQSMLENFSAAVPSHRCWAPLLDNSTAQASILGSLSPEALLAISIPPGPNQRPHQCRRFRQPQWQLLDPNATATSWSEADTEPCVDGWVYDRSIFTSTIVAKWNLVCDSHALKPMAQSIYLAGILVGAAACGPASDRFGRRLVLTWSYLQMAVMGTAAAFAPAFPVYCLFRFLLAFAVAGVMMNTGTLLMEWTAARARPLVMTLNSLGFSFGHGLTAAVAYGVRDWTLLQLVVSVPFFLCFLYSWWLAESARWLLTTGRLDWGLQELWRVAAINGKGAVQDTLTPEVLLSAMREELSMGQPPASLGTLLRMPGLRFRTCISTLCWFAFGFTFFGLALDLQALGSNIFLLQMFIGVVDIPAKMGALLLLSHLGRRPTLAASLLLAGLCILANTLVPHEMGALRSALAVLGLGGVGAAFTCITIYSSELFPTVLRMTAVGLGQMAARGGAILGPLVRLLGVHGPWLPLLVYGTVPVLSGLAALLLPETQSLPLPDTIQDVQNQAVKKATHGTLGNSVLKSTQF

[4] = biological target: T2, Solute carrier family 2, facilitated glucose transporter member 9 (Mus musculus) (UniProt Q3T9X0); experiment: Inhibition of mouse EGFP-tagged GLUT9 expressed in HEK293T cells assessed as inhibition rate by measuring relative current at 5 uM by patch clamp electrophysiological analysis relative to control; type: cell-based; set-up: scale not given: the % may be the effect or the level left
T2 sequence (whole entry): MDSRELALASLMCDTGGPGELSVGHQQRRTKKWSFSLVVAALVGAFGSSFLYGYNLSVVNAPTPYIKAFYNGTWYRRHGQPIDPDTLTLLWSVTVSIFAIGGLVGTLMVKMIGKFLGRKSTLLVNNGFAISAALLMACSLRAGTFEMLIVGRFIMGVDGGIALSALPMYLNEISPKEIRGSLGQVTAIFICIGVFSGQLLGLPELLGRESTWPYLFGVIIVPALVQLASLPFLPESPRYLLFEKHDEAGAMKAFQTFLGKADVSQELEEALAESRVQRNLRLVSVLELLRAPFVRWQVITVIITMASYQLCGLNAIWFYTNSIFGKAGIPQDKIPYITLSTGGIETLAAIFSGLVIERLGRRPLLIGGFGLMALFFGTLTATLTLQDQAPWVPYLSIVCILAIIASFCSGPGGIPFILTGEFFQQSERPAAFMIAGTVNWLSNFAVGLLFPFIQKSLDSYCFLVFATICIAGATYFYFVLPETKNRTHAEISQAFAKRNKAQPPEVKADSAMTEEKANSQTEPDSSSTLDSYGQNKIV

[5] = biological target: Xanthine dehydrogenase/oxidase (Bos taurus, UniProt P80457); experiment: Inhibition of bovine XOD using xanthine as substrate assessed as inhibitory ratio at 10 uM by spectrophotometric analysis relative to control; conditions: cattle
Mus musculus [6] = experiment: Reduction in serum uric acid level in acute hyperuricemia state Kunming mouse model assessed as SUA level at 2 mg/kg, po (reference value: 1037 +/- 106.59 uM); type: functional

Xanthine dehydrogenase/oxidase, sequence (P80457 whole entry): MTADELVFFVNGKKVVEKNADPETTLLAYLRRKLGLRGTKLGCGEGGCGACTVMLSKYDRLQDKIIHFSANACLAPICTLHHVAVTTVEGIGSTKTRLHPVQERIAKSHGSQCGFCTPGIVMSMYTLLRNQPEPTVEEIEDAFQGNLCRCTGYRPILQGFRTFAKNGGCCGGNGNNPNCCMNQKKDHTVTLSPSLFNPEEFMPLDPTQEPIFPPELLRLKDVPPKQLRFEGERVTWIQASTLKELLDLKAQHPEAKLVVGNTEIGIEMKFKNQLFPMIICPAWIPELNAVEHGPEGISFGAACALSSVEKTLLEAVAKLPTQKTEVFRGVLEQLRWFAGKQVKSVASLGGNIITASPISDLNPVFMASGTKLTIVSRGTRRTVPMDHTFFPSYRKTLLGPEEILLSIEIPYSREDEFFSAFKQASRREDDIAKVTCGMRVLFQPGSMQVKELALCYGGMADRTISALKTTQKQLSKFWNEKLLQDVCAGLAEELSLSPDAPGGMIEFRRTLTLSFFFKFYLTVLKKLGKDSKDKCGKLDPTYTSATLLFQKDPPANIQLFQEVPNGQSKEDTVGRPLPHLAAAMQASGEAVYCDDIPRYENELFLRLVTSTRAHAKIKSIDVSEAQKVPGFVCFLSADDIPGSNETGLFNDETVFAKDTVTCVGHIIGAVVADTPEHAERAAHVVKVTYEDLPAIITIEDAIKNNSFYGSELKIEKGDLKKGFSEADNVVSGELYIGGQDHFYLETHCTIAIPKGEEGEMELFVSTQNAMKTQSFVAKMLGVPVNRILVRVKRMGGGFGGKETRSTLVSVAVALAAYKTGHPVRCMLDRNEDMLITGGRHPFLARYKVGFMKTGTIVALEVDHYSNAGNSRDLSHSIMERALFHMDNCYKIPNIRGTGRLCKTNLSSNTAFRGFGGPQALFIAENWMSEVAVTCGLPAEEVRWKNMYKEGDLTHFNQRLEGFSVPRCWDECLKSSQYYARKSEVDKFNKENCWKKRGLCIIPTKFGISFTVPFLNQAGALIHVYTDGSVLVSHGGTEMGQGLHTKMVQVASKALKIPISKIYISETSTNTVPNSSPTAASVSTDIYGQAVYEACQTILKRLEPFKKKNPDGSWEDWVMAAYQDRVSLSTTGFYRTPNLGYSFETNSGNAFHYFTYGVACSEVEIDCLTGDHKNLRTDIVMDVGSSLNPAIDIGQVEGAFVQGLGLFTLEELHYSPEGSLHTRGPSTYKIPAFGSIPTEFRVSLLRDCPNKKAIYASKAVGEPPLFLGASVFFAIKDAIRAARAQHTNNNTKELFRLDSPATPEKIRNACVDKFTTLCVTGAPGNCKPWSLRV

Row | Structure (SMILES) | Activity (Mus musculus [1]) | Activity (Mus musculus [2]) | also measured
1 | CC(C)(Sc1nccc(Nc2ccc(C3CC3)c3ccccc23)n1)C(=O)O | 212.6 µM | 91% | IC50 [3]: 2.51 µM
2 | CC(Sc1nc2c(c(Nc3ccc(C4CC4)c4ccccc34)n1)SCC2)C(=O)O (stereo not given) | 1114.8 µM |  | 
3 | O=C(O)CSc1nc(Nc2ccc(C3CC3)c3ccccc23)c2sccc2n1 | 1062.6 µM | 1.1% | 
4 | COc1cc2nc(SCC(=O)O)nc(Nc3ccc(C4CC4)c4ccccc34)c2cc1OC | 193.4 µM | 91.3% | IC50 [3]: 4.86 µM
5 | O=C(O)CSc1nc2c(c(Nc3ccc(C4CC4)c4ccccc34)n1)COC2 | 1014.4 µM | 2.3% | 
6 | O=C(O)C1(Sc2nc3c(c(Nc4ccc(C5CC5)c5ccccc45)n2)COC3)CCC1 | 1021.4 µM | 1.5% | 
7 | CC(Sc1nc(Nc2ccc(C3CC3)c3ccccc23)c2sccc2n1)C(=O)O (stereo not given) | 412 µM | 69.9% | 
8 | O=C(O)CCSc1nc(Nc2ccc(C3CC3)c3ccccc23)c2ccsc2n1 | 196.4 µM | 92.7% | 
9 | CC(C)(Sc1nc2c(c(Nc3ccc(C4CC4)c4ccccc34)n1)CCC2)C(=O)O | 256.6 µM | 92.2% | IC50 [3]: 3.96 µM
10 | CC(C)(Sc1nc(Nc2ccc(C3CC3)c3ccccc23)c2ccsc2n1)C(=O)O | 447.2 µM | 66.2% | 
11 | CC(C)(Sc1nc(Nc2ccc(C3CC3)c3ccccc23)c2ccc(F)cc2n1)C(=O)O | 284.8 µM | 82.4% | 
12 | CC(Sc1nccc(Nc2ccc(C3CC3)c3ccccc23)n1)C(=O)O (stereo not given) | 234 µM | 88.9% | 
13 | O=C(O)CCCSc1nccc(Nc2ccc(C3CC3)c3ccccc23)n1 | 198.2 µM | 92.4% | IC50 [3]: 4.73 µM
14 | O=C(O)CCCSc1nc2c(c(Nc3ccc(C4CC4)c4ccccc34)n1)CCC2 | 851 µM | 22.6% | 
15 | O=C(O)CSc1nc(Nc2ccc(C3CC3)c3ccccc23)c2ccccc2n1 | 294.2 µM | 82.9% | 
16 | O=C(O)CSc1nc2c(c(Nc3ccc(C4CC4)c4ccccc34)n1)CCC2 | 831.4 µM | 24.9% | 
17 | O=C(O)CCCSc1nc2c(c(Nc3ccc(C4CC4)c4ccccc34)n1)COC2 | 1120.8 µM |  | 
18 | CC(C)(Sc1nc2c(c(Nc3ccc(C4CC4)c4ccccc34)n1)SCC2)C(=O)O | 297.2 µM | 87.5% | 
19 | CC(C)(Sc1nc(Nc2ccc(C3CC3)c3ccccc23)c2sccc2n1)C(=O)O | 425.4 µM | 68.5% | 

Row | Structure (SMILES) | Activity (Mus musculus [1]) | Activity (Mus musculus [2]) | also measured
20 | O=C(O)C1(Sc2nc(Nc3ccc(C4CC4)c4ccccc34)c3ccccc3n2)CCC1 | 608.8 µM | 51.6% | 
21 | CCc1oc2ccccc2c1C(=O)c1cc(Br)c(O)c(Br)c1 [BENZBROMARONE] | 753.2 µM | 37.3% | Activity [4]: 74.7%
22 | O=C(O)CSc1nc(Nc2ccc(C3CC3)c3ccccc23)c2ccsc2n1 | 368.2 µM | 74.5% | 
23 | O=C(O)CCCSc1nc2c(c(Nc3ccc(C4CC4)c4ccccc34)n1)SCC2 | 514.4 µM | 62% | 
24 | O=C(O)CCSc1nccc(Nc2ccc(C3CC3)c3ccccc23)n1 | 880.2 µM | 24.6% | 
25 | O=C(O)CCSc1nc2c(c(Nc3ccc(C4CC4)c4ccccc34)n1)SCC2 | 1013.8 µM | 3.54% | 
26 | O=C(O)C1(Sc2nc(Nc3ccc(C4CC4)c4ccccc34)c3ccsc3n2)CCC1 | 734.6 µM | 35.8% | 
27 | O=C(O)CSc1nccc(Nc2ccc(C3CC3)c3ccccc23)n1 | 442.4 µM | 68.2% | 
28 | O=C(O)CCCSc1nc(Nc2ccc(C3CC3)c3ccccc23)c2ccsc2n1 | 225 µM | 89.6% | 
29 | CC(Sc1nc2c(c(Nc3ccc(C4CC4)c4ccccc34)n1)COC2)C(=O)O (stereo not given) | 994.41 µM | 4.5% | 
30 | COc1cc2nc(SCCCC(=O)O)nc(Nc3ccc(C4CC4)c4ccccc34)c2cc1OC | 465.4 µM | 62.3% | 
31 | O=C(O)CCSc1nc2c(c(Nc3ccc(C4CC4)c4ccccc34)n1)CCC2 | 226.6 µM | 95.7% | IC50 [3]: 3.75 µM
32 | O=C(O)C1(Sc2nc(Nc3ccc(C4CC4)c4ccccc34)c3sccc3n2)CCC1 | 744 µM | 34.8% | 
33 | O=C(O)CCSc1nc(Nc2ccc(C3CC3)c3ccccc23)c2sccc2n1 | 209.6 µM | 91.3% | IC50 [3]: 2.75 µM
34 | O=C(O)CSc1nc(Nc2ccc(C3CC3)c3ccccc23)c2ccc(F)cc2n1 | 210.4 µM | 90.6% | 
35 | Cc1nc(-c2ccc(OCC(C)C)c(C#N)c2)sc1C(=O)O [FEBUXOSTAT] |  |  | inhibition at 10 µM [5]: 102%
36 | COc1cc2nc(SCCC(=O)O)nc(Nc3ccc(C4CC4)c4ccccc34)c2cc1OC | 828 µM | 23.6% | 
37 | O=C(O)CCSc1nc(Nc2ccc(C3CC3)c3ccccc23)c2ccc(F)cc2n1 | 912.4 µM | 13.5% | 
38 | CC(Sc1nc2ncccc2n1-c1ccc(C2CC2)c2ccccc12)C(=O)O (stereo not given) |  |  | Activity (Mus musculus [6]): 706.25 µM

Row | Structure (SMILES) | Activity (Mus musculus [1]) | Activity (Mus musculus [2]) | also measured
39 | COc1cc2nc(SC3(C(=O)O)CCC3)nc(Nc3ccc(C4CC4)c4ccccc34)c2cc1OC | 214.4 µM | 89.1% | 
40 | COc1cc2nc(SC(C)(C)C(=O)O)nc(Nc3ccc(C4CC4)c4ccccc34)c2cc1OC | 976.2 µM | 7.8% | 
41 | O=C(O)C1(Sc2nc(Nc3ccc(C4CC4)c4ccccc34)c3ccc(F)cc3n2)CCC1 | 734.6 µM | 33% | 
42 | CC(Sc1nc(Nc2ccc(C3CC3)c3ccccc23)c2ccccc2n1)C(=O)O (stereo not given) | 911.8 µM | 21.5% | 
43 | CC(Sc1nc(Nc2ccc(C3CC3)c3ccccc23)c2ccc(F)cc2n1)C(=O)O (stereo not given) | 482.4 µM | 60.7% | 
44 | O=C(O)CCCSc1nc(Nc2ccc(C3CC3)c3ccccc23)c2ccccc2n1 | 478.2 µM | 64.6% | 
45 | O=C(O)C1(Sc2nc3c(c(Nc4ccc(C5CC5)c5ccccc45)n2)CCC3)CCC1 | 614.6 µM | 50.3% | 
46 | O=C(O)C1(Sc2nc3c(c(Nc4ccc(C5CC5)c5ccccc45)n2)SCC3)CCC1 | 1014.8 µM | 3.42% | 
47 | O=C(O)CCSc1nc2c(c(Nc3ccc(C4CC4)c4ccccc34)n1)COC2 | 797.6 µM | 26.1% | 
48 | COc1cc2nc(SC(C)C(=O)O)nc(Nc3ccc(C4CC4)c4ccccc34)c2cc1OC (stereo not given) | 1039.4 µM | 1% | 
49 | CC(Sc1nc2c(c(Nc3ccc(C4CC4)c4ccccc34)n1)CCC2)C(=O)O (stereo not given) | 594.6 µM | 52.6% | 
50 | CC(Sc1nc(Nc2ccc(C3CC3)c3ccccc23)c2ccsc2n1)C(=O)O (stereo not given) | 884 µM | 20% | 
51 | CC(C)(Sc1nc2c(c(Nc3ccc(C4CC4)c4ccccc34)n1)COC2)C(=O)O | 1040 µM |  | 
52 | O=C(O)C1(Sc2nccc(Nc3ccc(C4CC4)c4ccccc34)n2)CCC1 | 537.8 µM | 58.7% | 
53 | O=C(O)CCCSc1nc(Nc2ccc(C3CC3)c3ccccc23)c2ccc(F)cc2n1 | 944.6 µM | 9.9% | 
54 | CC(C)(Sc1nc(Nc2ccc(C3CC3)c3ccccc23)c2ccccc2n1)C(=O)O | 200.8 µM | 92.2% | IC50 [3]: 4.35 µM
55 | O=C(O)CSc1nc2c(c(Nc3ccc(C4CC4)c4ccccc34)n1)SCC2 | 285.8 µM | 88.8% | 
56 | O=C(O)CCSc1nc(Nc2ccc(C3CC3)c3ccccc23)c2ccccc2n1 | 276.2 µM | 84.7% | 
